Patent US9417239B2, “Assay to determine LRRK2 activity in parkinson's disease” (PARKINSON'S INSTITUTE, priority 2011, dated 2016)

Assays:
LRRK2 [1] = target: T1, LRRK2 (Homo sapiens, UniProt Q5S007, D2017A); conditions: cited from earlier work
T1 construct: expressed in transfected cells; host or cells: HEK293 Flp-in T-REx, doxycycline-induced

LRRK2 [2] = target: T2, LRRK2 (Homo sapiens, UniProt Q5S007); test: Immunoblot of LRRK2 phosphosites after GFP immunoprecipitation from HEK293 T-REx cells expressing GFP-LRRK2 variants; assay type: cell-based; conditions: T-REx cells expressing active LRRK2; 1 μM LRRK2-IN1 for 90 minutes
Description: (§1) Protein concentrations were determined using the Bradford method with BSA as the standard.

LRRK2 [3] = target: T1, LRRK2; test: as above; assay type: cell-based; conditions: kinase inactive LRRK2 mutants; after LRRK2-IN1 treatment
Description: as §1

14-3-3 binding to LRRK2 = 14-3-3 binding to LRRK2 (Homo sapiens, UniProt Q5S007); test: 14-3-3 overlay (far-western) assay of immunoprecipitated GFP-LRRK2; assay type: cell-based; conditions: 1 μM LRRK2-IN1 for 90 minutes
Description: The indicated variants of full-length GFP-tagged LRRK2 were expressed from a stable and inducible locus in HEK293 T-REx cells and subjected to immunoprecipitation analysis. Immunoprecipitates were subjected to immunoblot analysis with anti-GFP, and anti-phospho-Ser910 (αpS910), anti-phospho-Ser935 (αpS935), anti-phospho-Ser955 (αpS955), and anti-phospho-Ser973 (αpS973) antibodies. 14-3-3 binding to the LRRK2 variants was assessed by 14-3-3 far-western blot analyses. All blots were co-probed with phospho antibody and GFP (total protein) monoclonal antibody and analyzed by Odyssey® LI-COR analysis; a representative total GFP blot is shown.
The Nanotrap GFP-Trap_A matrix was from ChromoTek (GTA-20). […] LiCOR Dyelight labelled 14-3-3 protein (recombinant, His tagged BMH1, a kind gift of Dr. Dario Alessi) was prepared as per the manufacturer's instructions and used to detect 14-3-3 binding. […] Fluorescent secondary antibodies were from Li-COR (Lincoln Nebr.) or Rockland immunochemicals (Rockland Ill.) LRRK2 Immunoprecipitation assays. Cell lysates were prepared in Lysis buffer (1.0 ml per 15 cm dish) and subjected to immunoprecipitation with GFP-trapA beads at 10 ul beads per 1.0 ml lysate for 1 hr. […]

GFP-LRRK2 = test: Fluorescence microscopy of GFP-LRRK2 localization in HEK-293 Flp-in T-REx cells; assay type: cell-based, human; conditions: wild-type GFP-LRRK2; 1 μM LRRK2-IN1 for 90 minutes
Description: T-REx cells lines harboring the indicated LRRK2 variants were induced for 24 h with 1 μg/ml doxycycline to induce expression of GFP-LRRK2. After induction, cells were exposed to vehicle control (DMSO) or 1 μM LRRK2-IN1 for 90 minutes, then fixed with paraformaldehyde and GFP fluorescence was imaged. Representative fluorescent micrographs of cultures for the indicated phosphosite mutants in the presence and absence of inhibitor are shown, localization analysis was performed at least three times. White scale bar represents 10 microns.
HEK-293 Flp-in T-REx cells harbouring GFP tagged LRRK2 and PD associated mutations were plated in 4-well glass bottom, CC2 coated chamber slides (Nunc). One day after plating, cells were induced with 1 μg/ml doxycycline and 24 hr later, cells were fixed in 4% paraformaldehyde buffered in phosphate buffered saline (purchased from Electron Microscopy Sciences, #15710). Cells were imaged under on a Nikon TiE microscope with a 60× objective.

LRRK2 [4] = target: T2, LRRK2; test: Immunoprecipitation of FLAG-tagged wild-type LRRK2 from treated HEK 293 cells, in vitro autophosphorylation kinase assay, phosphosite immunoblot; assay type: cell-based; conditions: transient expression, 1 μM LRRK2-IN1 for 90 minutes
Description: Immunoprecipitates were extensively washed then subjected to in vitro kinase assay in the presence or absence of ATP,in the presence or absence of LRRK2-1N1. Reaction products were immunoblotted with antiphospho-Ser1491 (αpThr1491), anti-phospho-Ser910 (αpS910), anti-phospho-Ser935 (αpS935), anti-phospho-Ser955 (αpS955), and anti-phospho-Ser973 (αpS973) antibodies.
Immunoprecipitation Kinase Assay conditions. Wild-type LRRK2 was transiently expressed in HEK293 cells using polyethylenimine for approximately 36 hours, then cells were treated with DMSO or 1 μM LRRK2-IN1 for 90 minutes. Lysates were then subjected to immunoprecipitation with anti-FLAG M2 agarose at a ratio of 1 μl beads per 100 μg of lysate for 2 hours.

LRRK2 [5] = test: Western blot of LRRK2 phosphorylation sites, FLAG tagged LRRK2 in HEK293 T-Rex cells (FIG. 4); assay type: cell-based, human; conditions: kinase dead and inhibitor resistant mutant samples
Text: Full length, FLAG tagged, wild-type or mutant LRRK2 (as indicated in FIG. 4) was expressed from a stable/inducible locus of HEK293 T-Rex cells (Invitrogen).

T2 sequence (Q5S007 whole entry): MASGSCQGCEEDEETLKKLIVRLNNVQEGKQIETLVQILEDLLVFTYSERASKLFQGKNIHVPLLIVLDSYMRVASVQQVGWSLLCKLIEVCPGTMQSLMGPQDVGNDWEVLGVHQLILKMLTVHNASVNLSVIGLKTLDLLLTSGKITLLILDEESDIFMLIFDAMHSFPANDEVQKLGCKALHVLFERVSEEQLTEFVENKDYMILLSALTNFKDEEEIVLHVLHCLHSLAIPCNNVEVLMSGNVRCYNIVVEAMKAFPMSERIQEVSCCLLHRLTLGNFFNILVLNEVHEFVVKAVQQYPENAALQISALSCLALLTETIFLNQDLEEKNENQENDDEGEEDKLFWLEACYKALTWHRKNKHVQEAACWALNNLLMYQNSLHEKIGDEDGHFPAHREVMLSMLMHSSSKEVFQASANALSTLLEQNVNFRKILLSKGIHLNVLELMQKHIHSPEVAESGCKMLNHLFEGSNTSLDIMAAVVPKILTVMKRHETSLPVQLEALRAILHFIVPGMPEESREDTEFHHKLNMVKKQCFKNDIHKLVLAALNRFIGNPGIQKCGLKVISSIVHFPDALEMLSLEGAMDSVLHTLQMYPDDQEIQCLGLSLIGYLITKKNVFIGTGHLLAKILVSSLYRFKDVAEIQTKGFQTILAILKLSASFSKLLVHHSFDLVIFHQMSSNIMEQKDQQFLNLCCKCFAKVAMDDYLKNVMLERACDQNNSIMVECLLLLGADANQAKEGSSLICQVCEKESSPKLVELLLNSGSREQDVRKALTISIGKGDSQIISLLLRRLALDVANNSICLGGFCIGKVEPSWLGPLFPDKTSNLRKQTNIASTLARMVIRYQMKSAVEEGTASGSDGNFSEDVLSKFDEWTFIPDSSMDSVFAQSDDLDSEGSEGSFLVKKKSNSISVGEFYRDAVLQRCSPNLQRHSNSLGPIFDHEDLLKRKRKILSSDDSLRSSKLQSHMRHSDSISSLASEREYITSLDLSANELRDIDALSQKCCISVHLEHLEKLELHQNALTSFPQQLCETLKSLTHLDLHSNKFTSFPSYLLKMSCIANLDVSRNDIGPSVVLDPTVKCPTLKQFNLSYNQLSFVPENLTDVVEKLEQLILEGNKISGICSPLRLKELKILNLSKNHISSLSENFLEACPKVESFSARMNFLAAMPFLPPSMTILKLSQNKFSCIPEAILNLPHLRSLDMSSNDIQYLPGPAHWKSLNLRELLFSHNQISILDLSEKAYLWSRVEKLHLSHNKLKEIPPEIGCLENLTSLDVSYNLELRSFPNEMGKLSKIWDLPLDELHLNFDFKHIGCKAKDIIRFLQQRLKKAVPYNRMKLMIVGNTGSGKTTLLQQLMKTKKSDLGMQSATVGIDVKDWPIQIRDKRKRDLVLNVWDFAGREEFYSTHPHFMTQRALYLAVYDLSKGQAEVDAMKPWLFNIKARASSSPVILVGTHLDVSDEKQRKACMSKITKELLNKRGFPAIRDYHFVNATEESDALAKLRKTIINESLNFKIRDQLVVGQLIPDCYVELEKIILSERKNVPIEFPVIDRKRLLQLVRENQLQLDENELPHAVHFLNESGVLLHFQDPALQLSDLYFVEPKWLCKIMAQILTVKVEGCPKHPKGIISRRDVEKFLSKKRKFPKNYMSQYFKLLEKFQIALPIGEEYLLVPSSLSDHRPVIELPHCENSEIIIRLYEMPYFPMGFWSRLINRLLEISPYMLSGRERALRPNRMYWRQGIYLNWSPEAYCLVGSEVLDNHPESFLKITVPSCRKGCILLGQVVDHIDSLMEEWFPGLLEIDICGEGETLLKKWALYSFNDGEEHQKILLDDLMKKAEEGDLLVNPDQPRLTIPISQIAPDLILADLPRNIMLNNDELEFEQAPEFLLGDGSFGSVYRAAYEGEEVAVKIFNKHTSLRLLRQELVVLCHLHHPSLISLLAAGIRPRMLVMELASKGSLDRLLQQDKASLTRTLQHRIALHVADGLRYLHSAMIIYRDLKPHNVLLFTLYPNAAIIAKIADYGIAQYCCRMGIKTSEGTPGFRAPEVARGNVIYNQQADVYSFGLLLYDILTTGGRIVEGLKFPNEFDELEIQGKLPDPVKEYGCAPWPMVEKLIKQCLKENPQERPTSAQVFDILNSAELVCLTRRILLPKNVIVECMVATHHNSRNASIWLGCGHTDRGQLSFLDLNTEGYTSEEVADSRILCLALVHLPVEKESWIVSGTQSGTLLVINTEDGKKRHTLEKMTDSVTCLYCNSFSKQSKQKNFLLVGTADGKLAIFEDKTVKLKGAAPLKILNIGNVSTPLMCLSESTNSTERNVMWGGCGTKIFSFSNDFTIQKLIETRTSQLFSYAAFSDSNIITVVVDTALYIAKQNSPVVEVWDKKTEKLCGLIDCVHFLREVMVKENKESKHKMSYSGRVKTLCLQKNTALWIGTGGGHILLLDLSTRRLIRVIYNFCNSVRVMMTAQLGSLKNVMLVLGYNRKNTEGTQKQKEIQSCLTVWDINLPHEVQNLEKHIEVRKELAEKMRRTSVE
T1 sequence (Q5S007 whole entry D2017A): as the sequence (Q5S007 whole entry) above, with D2017A counted along it
Sequence of 14-3-3 binding to LRRK2 (Q5S007 whole entry): as the sequence (Q5S007 whole entry) above

| SMILES | basal level of LRRK2 phosphorylation at 910/935 in kinase inactive mutants (LRRK2 [1]) | phosphorylation of Serines 910/935 (LRRK2 [2]) | phosphorylation of Serines 955 and 973 (LRRK2 [2]) | phosphorylation of Serines 910 and 935 or 955 and 973 in kinase inactive mutants (LRRK2 [3]) | direct 14-3-3 association with LRRK2 (14-3-3 binding to LRRK2) | localization of GFP tagged LRRK2 (GFP-LRRK2) | phosphorylation of Ser910, Ser935, Ser955 and Ser973 of FLAG tagged wild-type LRRK2 (LRRK2 [4]) | specificity of the inhibitor effects on phosphorylation of serines 955 and 973 (LRRK2 [5]) |
| --- | --- | --- | --- | --- | --- | --- | --- | --- |
| Cc1cncc2cccc(S(=O)(=O)N3CCCNC[C@@H]3C)c12 [H-1152] | did not perturb |  |  |  |  |  |  |  |
| COc1cc(C(=O)N2CCC(N3CCN(C)CC3)CC2)ccc1Nc1ncc2c(n1)N(C)c1ccccc1C(=O)N2C [LRRK2-IN1] |  | complete dephosphorylation | dephosphorylation | no change was observed | reduced direct 14-3-3 association | re-localization of the GFP tagged enzyme to intracellular puncta, large accumulations and microtubule like structures | dephosphorylated at the corresponding residues | specific to LRRK2 |
